Experimental data from PubChem BioAssay AID2060485 (Molecular Pharmacology Branch, DTP, NCI, 2025).
pIC50: −log10 of the molar value. Values joined by “and” are separate entries in the source; they are usually repeats but may differ in a detail not shown here. Identical values can stand only once.

Test system: A375 multi-cell spheroids with HUVEC/MSC, viability
Test: Anticancer human tumor A375 cell line growth inhibition [GQUAD];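 further: spheroids exposed to compounds for seven days before readout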
Conditions: for viability, T/C: stronger effect = lower value
Description: DNA G-quadruplex Stabilizer Agents in Combinations in Complex Spheroids
A high-throughput screen of multi-cell type tumor spheroids was designed to identify active combinations of DNA G-quadruplex stabilizer agents and targeted small molecules. Complex spheroids include a stromal component modeled by human endothelial cells (HUVEC) and fibroblasts modeled by human mesenchymal stem cells (MSCs). The concentration ranges selected for each drug and investigational agent were based upon clinically achievable concentrations if the clinical Cmax of the agent was known.
Compounds. The drugs and investigational agents: pidnarulex (CX-5461; NSC782164), APTO-253 (NSC789042), BRACO-19 (NSC847499), peposertib (NSC802822), ceralasertib (NSC780249), elimusertib (NSC800525), camonsertib (NSC841442), AZD-1390 (NSC803789), olaparib (NSC753686), talazoparib (NSC767125), ART-558 (NSC835418), sotorasib (NSC818433), MRTX-1133 (NSC836407), SN-38 (NSC673596), topotecan (NSC609699), etoposide (NSC141540), doxorubicin (NSC123127), gemcitabine (NSC613327), 5-fluorouracil (NSC19893), paclitaxel (NSC125973), vemurafenib (NSC761431), panobinostat (NSC761190), R-306465 (JNJ-16241199; NSC773264), adavosertib (NSC754352), TP-3654 (NSC805149), carboplatin (NSC241240), KSQ-4279 (NSC840948), and staurosporine (NSC755774) were obtained from the National Cancer Institute (NCI) Developmental Therapeutics Program Chemical Repository (34). The FDA-approved anticancer drug set is available from the NCI Developmental Therapeutics Program. […] The stock solutions were prepared in dimethyl sulfoxide (DMSO, Sigma-Aldrich, St. Louis, MO, cat. D2650) at 800-fold the tested concentration and stored at -70 degrees C prior to their use. All drugs and investigational agents were tested over a range starting from a high concentration at or near the clinical Cmax and decreasing in half-log increments. If the clinical Cmax for an agent had not been determined, the highest concentration tested was 10 microM.
2.3 Cell Culture. All cells were maintained in an incubator at 37 degrees C and 5% CO2 with 95% humidity. The PDC lines were cultured according to standard operating procedures established by the NCI PDMR. All PDCs were thawed and cultured in Matrigel-coated flasks prepared with a working solution of 1X Ham's F-12 nutrient mix, without supplementation (Invitrogen, cat. 11765054), 100 U/mL penicillin-streptomycin (Invitrogen, cat. 15140122), and 2.5% Matrigel (Corning Inc., cat. 354248) for the first three passages. The 857933-349-R-J2-PDC line was cultured in 6C/Colon 1B media, which includes advanced DMEM/F-12 (Thermo Fisher Scientific, cat. 12634028), 10 mM HEPES (Thermo Fisher Scientific, cat. 15630080), 1X GlutaMAX supplement (Thermo Fisher Scientific, cat. 35050061), 0.1 mg/mL primocin (InvivoGen, cat. ant-pm-2), 10% defined fetal bovine serum, heat inactivated (HyClone Laboratories Inc., cat. SH30070.03HI), 50% L-WRN conditioned media (ATCC, cat. CRL-3276), 1.25 mM N-Acetyl-L-cysteine (Sigma-Aldrich, cat. A9165), 10 mM nicotinamide (Sigma-Aldrich, cat. N0636), 1X B-27 supplement (Thermo Fisher Scientific, cat. 17504044), 1X N-2 supplement (Thermo Fisher Scientific, cat. 17502048), 10 microM Y-27632 dihydrochloride (Tocris Bioscience, cat. 1254), and 50 ng/mL human EGF recombinant protein (Thermo Fisher Scientific, cat. PHG0311). The 485176-168-R4-J1-PDC line was cultured in Panc media, which includes all 6C/Colon 1B media components plus 100 ng/mL human FGF-10 (Thermo Fisher Scientific, cat. 100-26), 500 nM SB-431542 (Selleckchem, cat. S1067), and gastrin (Tocris, cat. 3006).
[…]

## O=c1[nH]cc(F)c(=O)[nH]1
Compound 0.0316 µM
  viability, T/C: 97% and 94.6% and 100%
Compound 0.1 µM
  viability, T/C: 103% and 94.6% and 105%
Compound 0.316 µM
  viability, T/C: 106% and 95.4% and 101%
Compound 1 µM
  viability, T/C: 96.8% and 100% and 101%
Compound 3.16 µM
  viability, T/C: 106% and 94.5% and 104%
Compound 10 µM
  viability, T/C: 104% and 106% and 103%
Curve of compound
  pIC50: < 5.00

## C=CCn1c(=O)c2cnc(Nc3ccc(N4CCN(C)CC4)cc3)nc2n1-c1cccc(C(C)(C)O)n1
Compound 0.0316 µM
  viability, T/C: 101% and 98.4% and 96.4%
Compound 0.1 µM
  viability, T/C: 104% and 102% and 96.9%
Compound 0.316 µM
  viability, T/C: 89.5% and 96.9% and 102%
Compound 1 µM
  viability, T/C: 48.4% and 59% and 66.4%
Compound 3.16 µM
  viability, T/C: 11.5% and 13.3% and 17.2%
Compound 10 µM
  viability, T/C: 5.76% and 7.73% and 8.28%
Curve of compound
  pIC50: 6.03 and 5.90 and 5.83

## Cc1cccc(N(C)C(=O)C2C(O)CCN2c2nc(C)cc(C(F)(F)F)c2C#N)c1 (stereo unspecified)
Compound 0.0316 µM
  viability, T/C: 110% and 103% and 101%
Compound 0.1 µM
  viability, T/C: 94.9% and 106% and 101%
Compound 0.316 µM
  viability, T/C: 97.7% and 98.8% and 106%
Compound 1 µM
  viability, T/C: 97.1% and 104% and 90.2%
Compound 3.16 µM
  viability, T/C: 96.7% and 109% and 108%
Compound 10 µM
  viability, T/C: 97.8% and 103% and 95%
Curve of compound
  pIC50: < 5.00

## COc1ncnc(C2CC2)c1-c1ncc2cnn(Cc3ccc(-c4nc(C(F)(F)F)cn4C(C)C)cc3)c2n1
Compound 0.0316 µM
  viability, T/C: 94% and 97.5% and 102%
Compound 0.1 µM
  viability, T/C: 93.6% and 99.8% and 99.5%
Compound 0.316 µM
  viability, T/C: 93.8% and 100% and 99.5%
Compound 1 µM
  viability, T/C: 104% and 98.2% and 103%
Compound 3.16 µM
  viability, T/C: 109% and 103% and 105%
Compound 10 µM
  viability, T/C: 106% and 108% and 99.5%
Curve of compound
  pIC50: < 5.00

## O=C(c1cc(Cc2n[nH]c(=O)c3ccccc23)ccc1F)N1CCN(C(=O)C2CC2)CC1
Compound 0.0316 µM
  viability, T/C: 93.2% and 101% and 92.1%
Compound 0.1 µM
  viability, T/C: 92% and 98.2% and 93.7%
Compound 0.316 µM
  viability, T/C: 98.1% and 94.9% and 107%
Compound 1 µM
  viability, T/C: 101% (2×) and 99.2%
Compound 3.16 µM
  viability, T/C: 101% and 105% and 95.4%
Compound 10 µM
  viability, T/C: 91% and 84.7% and 87.8%
Curve of compound
  pIC50: < 5.00

## C#Cc1c(F)ccc2cc(O)cc(-c3ncc4c(N5CC6CCC(C5)N6)nc(OCC56CCCN5CC(F)C6)nc4c3F)c12 (stereo unspecified)
Compound 0.0316 µM
  viability, T/C: 103% and 97.8% and 101%
Compound 0.1 µM
  viability, T/C: 96% and 106% and 96.2%
Compound 0.316 µM
  viability, T/C: 97.2% and 96.2% and 108%
Compound 1 µM
  viability, T/C: 101% and 117% (2×)
Compound 3.16 µM
  viability, T/C: 113% and 106% and 101%
Compound 10 µM
  viability, T/C: 90.4% and 98.4% and 113%
Curve of compound
  pIC50: < 5.00

## CCCS(=O)(=O)Nc1ccc(F)c(C(=O)c2c[nH]c3ncc(-c4ccc(Cl)cc4)cc23)c1F
Compound 0.0316 µM
  viability, T/C: 41.8% and 44% and 40.9%
Compound 0.1 µM
  viability, T/C: 16.1% and 14.9% and 17.2%
Compound 0.316 µM
  viability, T/C: 8.83% and 9.93% and 11.1%
Compound 1 µM
  viability, T/C: 6.9% and 7.11% and 7.65%
Compound 3.16 µM
  viability, T/C: 5.54% and 6.38% and 6.53%
Compound 10 µM
  viability, T/C: 5.63% and 5.69% and 7.54%
Curve of compound
  pIC50: > 7.50

## CC(=O)O[C@H]1C(=O)[C@@]2(C)[C@H]([C@H](OC(=O)c3ccccc3)[C@]3(O)C[C@H](OC(=O)[C@H](O)[C@@H](NC(=O)c4ccccc4)c4ccccc4)C(C)=C1C3(C)C)[C@]1(OC(C)=O)CO[C@@H]1C[C@@H]2O + Cc1cnc(CNC(=O)c2c(=O)c3ccc(N4CCCN(C)CC4)nc3n3c2sc2ccccc23)cn1
Curve of first compound, second compound 0.0316 µM
  pIC50: 7.19
Curve of first compound, second compound 0.1 µM
  pIC50: 7.44
Curve of first compound, second compound 0.316 µM
  pIC50: > 7.50
Curve of first compound, second compound 1 µM
  pIC50: > 7.50
Curve of first compound, second compound 3.16 µM
  pIC50: > 7.50
Curve of first compound, second compound 10 µM
  pIC50: > 7.50
Second compound 0.0316 µM, first compound 0.0316 µM
  viability, T/C: 77.3%
Second compound 0.0316 µM, first compound 0.1 µM
  viability, T/C: 33%
Second compound 0.0316 µM, first compound 0.316 µM
  viability, T/C: 18.5%
Second compound 0.0316 µM, first compound 1 µM
  viability, T/C: 14.2%
Second compound 0.0316 µM, first compound 3.16 µM
  viability, T/C: 14.7%
Second compound 0.0316 µM, first compound 10 µM
  viability, T/C: 19%
Second compound 0.1 µM, first compound 0.0316 µM
  viability, T/C: 53.3%
Second compound 0.1 µM, first compound 0.1 µM
  viability, T/C: 24.9%
Second compound 0.1 µM, first compound 0.316 µM
  viability, T/C: 17.8%
Second compound 0.1 µM, first compound 1 µM
  viability, T/C: 21.1%
Second compound 0.1 µM, first compound 3.16 µM
  viability, T/C: 18.1%
Second compound 0.1 µM, first compound 10 µM
  viability, T/C: 23.2%
Second compound 0.316 µM, first compound 0.0316 µM
  viability, T/C: 40.1%
Second compound 0.316 µM, first compound 0.1 µM
  viability, T/C: 25.9%
Second compound 0.316 µM, first compound 0.316 µM
  viability, T/C: 25.2%
Second compound 0.316 µM, first compound 1 µM
  viability, T/C: 21.2%
Second compound 0.316 µM, first compound 3.16 µM
  viability, T/C: 20.1%
Second compound 0.316 µM, first compound 10 µM
  viability, T/C: 22.8%
Second compound 1 µM, first compound 0.0316 µM
  viability, T/C: 35%
Second compound 1 µM, first compound 0.1 µM
  viability, T/C: 24.3%
Second compound 1 µM, first compound 0.316 µM
  viability, T/C: 26.8%
Second compound 1 µM, first compound 1 µM
  viability, T/C: 28.2%
Second compound 1 µM, first compound 3.16 µM
  viability, T/C: 31%
Second compound 1 µM, first compound 10 µM
  viability, T/C: 32.1%
Second compound 3.16 µM, first compound 0.0316 µM
  viability, T/C: 30.1%
Second compound 3.16 µM, first compound 0.1 µM
  viability, T/C: 23.1%
Second compound 3.16 µM, first compound 0.316 µM
  viability, T/C: 24.4%
Second compound 3.16 µM, first compound 1 µM
  viability, T/C: 28.7%
Second compound 3.16 µM, first compound 3.16 µM
  viability, T/C: 28.2%
Second compound 3.16 µM, first compound 10 µM
  viability, T/C: 33.7%
Second compound 10 µM, first compound 0.0316 µM
  viability, T/C: 26.7%
Second compound 10 µM, first compound 0.1 µM
  viability, T/C: 23.3%
Second compound 10 µM, first compound 0.316 µM
  viability, T/C: 23.5%
Second compound 10 µM, first compound 1 µM
  viability, T/C: 23.3%
Second compound 10 µM, first compound 3.16 µM
  viability, T/C: 26%
Second compound 10 µM, first compound 10 µM
  viability, T/C: 29.6%
